Experimental data as given in patent US11001615B2, “Mutated tau protein fragment and use thereof” (ADEL INC., priority 2016, dated 2021).
Ends that are not written are not given here.

Columns and labels:
Type in all cases: in vivo
Tau-P301L dementia mice [1] = test: Y-maze experiment; details: Tau-P301L 50% decrease in measurement time versus normal mice
Description: (§1) JNPL3 mice expressing Tau-P301L mutant gene were purchased from Taconic, and back-crossed with C57bl/6 mice for five generations in the experimental animal room of the Asan Institute for Life Sciences. Then, the mice were raised under a specific pathogen free (SPE) condition. For active immunization, the mice were administered, for six months starting from three months after birth at intervals of two weeks, two weeks, four weeks, four weeks, five weeks, four weeks, and one week in this order, the four modified tau protein fragments prepared in Preparation Example 1 together with keyhole limpet hemocyanin (KLH) as a carrier and an aluminum adjuvant. At this time, administration was carried out through intraperitoneal injection (IP injection). The dementia mice which were actively immunized by administration of the K280-ac fragment were designated as Tau-P301L-K280-ac.
In addition, a Y-maze experiment was performed to identify restoration of cognitive function. Specifically, A, B, and C zones were set in a Y-shaped box, and the mice were allowed to freely move for 5 minutes in a state where the B zone was blocked.

Tau-P301L dementia mice [2] = test: Vertical grid test; details: normal mice 10 or shorter, Tau-P301L 5 or shorter
Description: as §1
A vertical grid test was performed on the mice raised in Preparation Example 2. […] Specifically, the mice were placed on the vertical grid device, and allowed to go up and down the vertical grid. The time until the mice dropped down from the grid was measured.

Tau-P301L dementia mice [3] = test: Fear conditioning experiment; details: actively immunized Tau-P301L dementia mice; normal mice about 150, Tau-P301L 100 or shorter
Description: as §1
A fear conditioning experiment was performed on the mice raised in Preparation Example 2. […]
On the day before the fear conditioning experiment, the mice were allowed to become accustomed to a training situation by being placed in the training situation for 10 minutes. […] All tests were recorded on Limelight (Actimetrics) and a computer.
On the next day, the mice were placed again in the experimental cage for 10 minutes and a baseline freezing time was measured while the beep sound was heard. […]

Tau-P301L dementia mice [4] = test: Antibody distribution in brain tissue (immunohistochemical staining and western blotting for mouse immunoglobulin-G); details: after cardiac perfusion
Description: as §1
In order to identify antibodies in brain tissues of the Tau-P301L-K280-ac dementia mice, the P301L-K280-ac dementia mice, and the normal mice produced in Preparation Example 2, cardiac perfusion was performed with cold physiological saline. Then, the brain tissues were extracted, and immunohistochemical staining and western blotting were performed for mouse immunoglobulin-G.

Tau-P301L dementia mice [5] = test: Novel object recognition experiment; details: Tau-P301L 50% decrease versus normal mice
Description: as §1
In addition, a memory experiment was performed with novel object recognition. […] Two identical objects were placed in the white box, and then the time spent staying around each object was measured while allowing the mice to make exploration for 5 minutes. 4 hours later, one of the objects installed was replaced with another model, and movement of the mice and the time spent staying around the object were measured for 5 minutes.

Tau-P301L dementia mice [6] = test: Grip strength test
Description: as §1
A grip strength test was performed to identify muscle strength of the mice. […] At this time, an iron bundle that weighs 40 g was used for the iron bundle. The mice produced in Preparation Example 2 were held by the tail end, and the forefeet of the mice were caused to be placed on the 40 g iron bundle so that the mice can grab the iron bundle. […] The time until the mice missed the iron bundle was measured and comparison was made for the respective mice.

Tau-P301L dementia mice [7] = test: Western blotting of brain tissues for GCP-II; details: brain tissue
Description: as §1
Glutamate carboxypeptidase-2 ([…], folate hydrolase 1) is a NAAG peptidase that degrades NAAG. There is a possibility that an increase in GCP-II is a cause for decreased NAAG. Thus, brain tissues of the Tau-P301L-K280-ac dementia mice, the P301L-K280-ac dementia mice, and the normal mice produced in Preparation Example 2 were extracted and western blotting was performed.

Tau-P301L dementia mice [8] = test: ELISA using plasma: antibody production against modified tau protein fragments; details: ELISA using plasma after final administration; fragment with KLH and aluminum adjuvant, IP
Description: as §1
In order to identify whether antibodies against the four modified tau protein fragments prepared in Preparation Example 1 were produced, the respective modified tau protein fragments or the full-length tau protein was finally administered, and then ELISA was performed using plasma.

Tau-P301L dementia mice [9] = test: Nest building test; details: Tau-P301L about 50% decrease versus normal mice
Description: as §1
Behavioral experiments were conducted to identify changes in motor ability and cognitive function of the Tau-P301L dementia mice produced in Preparation Example 2. A nest building test which can identify a multimodal brain function of the mice was performed.
Specifically, two-thirds of the litter in a cage where the mice are raised was removed and four layers of sterile cotton (5 cm×5 cm) were placed in the cage. One mouse was allowed to enter one cage. The next morning, a degree of completion of the nest was analyzed.

## Val-Gln-Ile-Ile-Asn-Lys-Lys-Leu-Asp-Leu-Ser-Asn (VQIINK(Ac)KLDLSN) [K280-ac]
Tau-P301L dementia mice [1]
  cognitive function in the Y-maze: restored
Tau-P301L dementia mice [2]
  measured time on the vertical grid: 10 s
Tau-P301L dementia mice [3]
  freezing time: about 150 seconds
Tau-P301L dementia mice [4]
  antibodies in brain tissues: antibodies are present
Tau-P301L dementia mice [5]
  time spent staying around the novel object: increased to a level which corresponds to that in the normal mice
Tau-P301L dementia mice [6]; 40 g iron bundle, normal mice 10 or shorter, Tau-P301L 5 or shorter
  measured time for grab strength: about 12 seconds
Tau-P301L dementia mice [6]; actively immunized Tau-P301L dementia mice
  grip strength, change versus controls: restored to that of the normal mice
Tau-P301L dementia mice [7]
  expression level of GCP-II: decreased expression level of GCP-II which corresponds to that in the normal mice
Tau-P301L dementia mice [8]
  antibodies against the fragment produced: well produced
Tau-P301L dementia mice [9]
  building score: restored to a level which is similar to that in the normal mice
